Columns and labels:
[1] = Toxicity towards CEM cells determined by standard MTT assay, expressed as concentration required for the survival of 50% cells; type: cell-based; conditions: human, CEM cells (CCRF-CEM cell line); read-out: TC50 (the source's name)
[2] = test system: Human immunodeficiency virus 1; assay: Antiviral activity against human immunodeficiency virus type 1 by using MAGI assay; type: functional, organism-based; conditions: Human immunodeficiency virus 1, MAGI
[3] = test system: Human immunodeficiency virus 1; assay: Antiviral activity against human immunodeficiency virus type 1 by using MAGI assay; NR = not reached; type: functional, organism-based

## O=C(O)c1ccc(C(=O)c2ccc3ccc(/C=C/c4ccc(O)c(O)c4)nc3c2O)cc1
[1]
  CC50: 80 µM
[2]
  IC50: 40 µM

## O=C(c1ccc2ccc(/C=C/c3ccc(O)c(O)c3)nc2c1O)c1cccc2ccccc12
[1]
  CC50: 1 µM
[3]
  IC50: Not reached

## O=C(c1ccccc1)c1ccc2ccc(/C=C/c3ccc(O)c(O)c3)nc2c1O
[1]
  CC50: 3 µM
[3]
  IC50: Not reached

## O=C(c1ccc([N+](=O)[O-])cc1)c1ccc2ccc(/C=C/c3ccc(O)c(O)c3)nc2c1O
[1]
  CC50: 60 µM
[2]
  IC50: 2 µM

## Cc1cc(C(=O)c2ccc3ccc(/C=C/c4ccc(O)c(O)c4)nc3c2O)ccc1[N+](=O)[O-]
[1]
  CC50: 90 µM
[2]
  IC50: 60 µM

## O=C(O)c1cccc(C(=O)c2ccc3ccc(/C=C/c4ccc(O)c(O)c4)nc3c2O)c1
[1]
  CC50: > 100 µM
[2]
  IC50: 63 µM

## O=C(CCc1ccccc1)c1ccc2ccc(/C=C/c3ccc(O)c(O)c3)nc2c1O
[1]
  CC50: 7 µM
[2]
  IC50: 2 µM

## O=C(c1cccnc1)c1ccc2ccc(/C=C/c3ccc(O)c(O)c3)nc2c1O
[1]
  CC50: > 100 µM
[2]
  IC50: 2 µM

## O=C(c1ccncc1)c1ccc2ccc(/C=C/c3ccc(O)c(O)c3)nc2c1O
[1]
  CC50: 4 µM
[3]
  IC50: Not reached

## O=C(c1ccc(O)cc1)c1ccc2ccc(/C=C/c3ccc(O)c(O)c3)nc2c1O
[1]
  CC50: 87 µM
[2]
  IC50: 6 µM

## O=C(c1ccccc1[N+](=O)[O-])c1ccc2ccc(/C=C/c3ccc(O)c(O)c3)nc2c1O
[1]
  CC50: 70 µM
[2]
  IC50: 4 µM

## O=C(c1ccc(F)c(F)c1)c1ccc2ccc(/C=C/c3ccc(O)c(O)c3)nc2c1O
[1]
  CC50: 63 µM
[2]
  IC50: 4 µM

## O=C(c1cccc([N+](=O)[O-])c1)c1ccc2ccc(/C=C/c3ccc(O)c(O)c3)nc2c1O
[1]
  CC50: 1.5 µM
[2]
  IC50: 0.5 µM

## O=C(c1ccccc1O)c1ccc2ccc(/C=C/c3ccc(O)c(O)c3)nc2c1O
[1]
  CC50: 1 µM
[3]
  IC50: Not reached

## CCCCCCCCC(=O)c1ccc2ccc(/C=C/c3ccc(O)c(O)c3)nc2c1O
[1]
  CC50: 10 µM
[2]
  IC50: 5 µM

## O=C(O)c1ccc2ccc(/C=C/c3ccc(O)c(O)c3)nc2c1O
[1]
  CC50: > 100 µM

## O=C(O)c1ccccc1C(=O)c1ccc2ccc(/C=C/c3ccc(O)c(O)c3)nc2c1O
[1]
  CC50: > 100 µM
[2]
  IC50: 35 µM

## O=C(c1ccccn1)c1ccc2ccc(/C=C/c3ccc(O)c(O)c3)nc2c1O
[1]
  CC50: 15 µM
[3]
  IC50: Not reached
